Test results from PubChem BioAssay AID256 (DTP/NCI, 2004).
Inconclusive results and toxic doses are left out. Non-standard residues stand in square brackets, D forms with d. Residues, ends and D or L forms follow the SMILES beside them. *: point of attachment. Cbz = O=C(OCc1ccccc1)*; Nva = CCC[CH](N)C(=O)O

Test system: CD2F1 mice, L1210 leukemia ip, survival T/C
Test: NCI In Vivo Anticancer Drug Screen. Data for tumor model L1210 Leukemia (intraperitoneal) in CD2F1 (CDF1) mice
Conditions: endpoint: mean survival time, higher = longer survival
Outline: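 Vehicle-treated tumor-bearing mice served as controls (C) for compound-treated mice (T). Reported figure is T divided by C.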

[1] = dose: 100.0 mg/kg/injection, schedule: Q01DX009 (ip), vehicle: saline with Tween-80
[2] = dose: 100.0 mg/kg/injection, schedule: Q04DX003 (ip), vehicle: saline with Tween-80
[3] = dose: 200.0 mg/kg/injection, schedule: Q01DX009 (ip), vehicle: saline with Tween-80
[4] = dose: 200.0 mg/kg/injection, schedule: Q04DX003 (ip), vehicle: saline with Tween-80
[5] = dose: 400.0 mg/kg/injection, schedule: Q01DX009 (ip), vehicle: saline with Tween-80
[6] = dose: 400.0 mg/kg/injection, schedule: Q04DX003 (ip), vehicle: saline with Tween-80
[7] = dose: 100.0 mg/kg/injection, schedule: Q04DX003 (ip), vehicle: saline
[8] = dose: 200.0 mg/kg/injection, schedule: Q04DX003 (ip), vehicle: saline
[9] = dose: 400.0 mg/kg/injection, schedule: Q04DX003 (ip), vehicle: saline
[10] = dose: 75.0 mg/kg/injection, schedule: Q01DX001 (ip), vehicle: saline
[11] = dose: 150.0 mg/kg/injection, schedule: Q01DX001 (ip), vehicle: saline

Which T/C [1] does the source give for `Cc1ccc(OS(=O)(=O)c2ccc(C)cc2)cc1` here?
Its T/C is 97 % of control.

What about the T/C [2] of the same compound?
Its T/C is 96 % of control.

What about the T/C [3] of the same compound?
The T/C was 100 % of control.

And the T/C [4]?
Its T/C is 93 % of control.

And the T/C [5]?
Its T/C is 96 % of control.

What about the T/C [6] of the same compound?
Its T/C is 98 % of control.

How did the T/C [1] turn out when `CCCC(NC(=O)C(C)NC(=O)OCc1ccccc1)C(N)=O` (stereo not drawn) (Cbz-Ala-[Nva]-NH2; configuration not given here) was run?
Its T/C is 90 % of control.

And the T/C [3]?
Its T/C is 92 % of control.

What about the T/C [5] of the same compound?
Its T/C is 92 % of control.

Which results are given for `COc1cc(C)ccc1C1=CCCCC1`?
T/C [7]: 95 % of control; T/C [8]: 95 % of control; T/C [9]: 87 % of control

For `CN(CCO)N=Nc1ccccc1`, which T/C [10] is on record?
The T/C was 102 % of control.

What about the T/C [11] of the same compound?
Its T/C is 105 % of control.

What does the source list for `O=S(O)C(=NC1CCCCC1)NC1CCCCC1`?
T/C [1]: 90 % of control; T/C [3]: 90 % of control; T/C [5]: 105 % of control

With `c1ccc([I+]c2ccccc2)cc1` as the compound, how does the T/C (dose: 0.65 mg/kg/injection, schedule: Q01DX009 (ip), vehicle: saline with Tween-80) read?
Its T/C is 98 % of control.

What about the T/C (dose: 1.3 mg/kg/injection, schedule: Q01DX009 (ip), vehicle: saline with Tween-80) of the same compound?
Its T/C is 98 % of control.

And the T/C (dose: 2.5 mg/kg/injection, schedule: Q01DX009 (ip), vehicle: saline sonified)?
The T/C was 103 % of control.

And the T/C (dose: 2.5 mg/kg/injection, schedule: Q01DX009 (ip), vehicle: saline with Tween-80)?
Its T/C is 98 % of control.

And the T/C (dose: 2.5 mg/kg/injection, schedule: Q04DX003 (ip), vehicle: saline with Tween-80)?
Its T/C is 95 % of control.

And the T/C (dose: 5.0 mg/kg/injection, schedule: Q01DX009 (ip), vehicle: saline sonified)?
The T/C was 94 % of control.

And the T/C (dose: 5.0 mg/kg/injection, schedule: Q04DX003 (ip), vehicle: saline with Tween-80)?
Its T/C is 104 % of control.

What about the T/C (dose: 5.0 mg/kg/injection, schedule: Q04DX003 (ip), vehicle: saline) of the same compound?
Its T/C is 98 % of control.

What about the T/C (dose: 10.0 mg/kg/injection, schedule: Q04DX003 (ip), vehicle: saline with Tween-80) of the same compound?
The T/C was 103 % of control.

And the T/C (dose: 10.0 mg/kg/injection, schedule: Q04DX003 (ip), vehicle: saline)?
The T/C was 97 % of control.

And the T/C (dose: 20.0 mg/kg/injection, schedule: Q04DX003 (ip), vehicle: saline)?
The T/C was 115 % of control.

For `Cc1ccc([NH-])c(Cl)c1.Cc1ccc([NH-])c(Cl)c1.[Cl][Pt+2][Cl]`, which T/C (dose: 12.5 mg/kg/injection, schedule: Q04DX003 (ip), vehicle: saline with Tween-80) is on record?
Its T/C is 95 % of control.

And the T/C (dose: 25.0 mg/kg/injection, schedule: Q04DX003 (ip), vehicle: saline with Tween-80)?
The T/C was 97 % of control.

What about the T/C (dose: 50.0 mg/kg/injection, schedule: Q04DX003 (ip), vehicle: saline with Tween-80) of the same compound?
Its T/C is 97 % of control.

What about the T/C [2] of the same compound?
The T/C was 97 % of control.

What about the T/C [4] of the same compound?
The T/C was 89 % of control.

Which T/C (dose: 50.0 mg/kg/injection, schedule: Q01DX009 (ip), vehicle: saline with Tween-80) does the source give for `CC(C)[CH2][Sn](=[O])[OH]` here?
Its T/C is 115 % of control.

What about the T/C [1] of the same compound?
The T/C was 103 % of control.

How did the T/C (dose: 100.0 mg/kg/injection, schedule: Q01DX001 (ip), vehicle: saline) turn out when `O=C(O)c1cc(C(=O)O)c(-c2ccccc2)c(-c2ccccc2)c1` was run?
The T/C was 97 % of control.

What about the T/C (dose: 200.0 mg/kg/injection, schedule: Q01DX001 (ip), vehicle: saline) of the same compound?
Its T/C is 97 % of control.

What about the T/C (dose: 400.0 mg/kg/injection, schedule: Q01DX001 (ip), vehicle: saline) of the same compound?
The T/C was 101 % of control.

Which results are given for `NC(=S)NC(=O)c1ccccc1`?
T/C [2]: 94 % of control; T/C [4]: 94 % of control; T/C [6]: 94 % of control

Which T/C (dose: 50.0 mg/kg/injection, schedule: Q01DX009 (ip), vehicle: saline) does the source give for `CNC(=O)Oc1ccc2c(c1)OCO2` here?
The T/C was 96 % of control.

And the T/C (dose: 100.0 mg/kg/injection, schedule: Q01DX009 (ip), vehicle: saline)?
Its T/C is 112 % of control.

And the T/C (dose: 200.0 mg/kg/injection, schedule: Q01DX009 (ip), vehicle: saline)?
The T/C was 100 % of control.

What does the source list for `O=C(Cl)OC1CS(=O)(=O)CC1O` (configuration not stated)?
T/C [2]: 98 % of control; T/C [4]: 98 % of control; T/C [6]: 101 % of control

With `N=C(N)SC(c1ccccc1)c1ccccc1` as the compound, how does the T/C (dose: 25.0 mg/kg/injection, schedule: Q04DX003 (ip), vehicle: saline) read?
The T/C was 100 % of control.

What about the T/C (dose: 50.0 mg/kg/injection, schedule: Q04DX003 (ip), vehicle: saline) of the same compound?
Its T/C is 94 % of control.

And the T/C [7]?
The T/C was 102 % of control.

What does the source list for `C(CC1CO1)CC1OC1CC1CO1` (configuration not stated)?
T/C (dose: 39.0 mg/kg/injection, schedule: Q01DX009 (ip), vehicle: saline): 109 % of control; T/C [10]: 109 % of control; T/C (dose: 133.0 mg/kg/injection, schedule: Q01DX009 (ip), vehicle: saline): 156 % of control; T/C [11]: 119 % of control

What does the source list for `C=CC1CCCCC1C` (configuration not stated)?
T/C [2]: 100 % of control; T/C [4]: 100 % of control; T/C [6]: 103 % of control

Which results are given for `ClCCOc1ccccc1-c1ccccc1`?
T/C (dose: 100.0 mg/kg/injection, schedule: Q04DX003 (ip), vehicle: other): 98 % of control; T/C (dose: 200.0 mg/kg/injection, schedule: Q04DX003 (ip), vehicle: other): 96 % of control; T/C (dose: 400.0 mg/kg/injection, schedule: Q04DX003 (ip), vehicle: other): 100 % of control

Which results are given for `Cc1c(O)c2c(c(O)c1Cc1cccc(CN)c1)C(=O)c1ccccc1C2=O`?
T/C (dose: 1.56 mg/kg/injection, schedule: Q01DX009 (ip), vehicle: other): 101 % of control; T/C (dose: 3.13 mg/kg/injection, schedule: Q01DX009 (ip), vehicle: other): 93 % of control; T/C (dose: 6.25 mg/kg/injection, schedule: Q01DX009 (ip), vehicle: other): 87 % of control; T/C (dose: 12.5 mg/kg/injection, schedule: Q01DX009 (ip), vehicle: other): 90 % of control; T/C (dose: 25.0 mg/kg/injection, schedule: Q01DX009 (ip), vehicle: other): 94 % of control

`CSc1nc(=O)[nH]nc1SCc1ccccc1` was tested. Which T/C (dose: 100.0 mg/kg/injection, schedule: Q01DX001 (ip), vehicle: carboxymethylcellulose (CMC)) did it give?
The T/C was 100 % of control.

And the T/C (dose: 200.0 mg/kg/injection, schedule: Q01DX001 (ip), vehicle: carboxymethylcellulose (CMC))?
The T/C was 91 % of control.

What about the T/C (dose: 400.0 mg/kg/injection, schedule: Q01DX001 (ip), vehicle: carboxymethylcellulose (CMC)) of the same compound?
Its T/C is 89 % of control.

How did the T/C [7] turn out when `COc1ccc(/C=C/C(=O)c2ccc3c(c2)OCO3)cc1OC` was run?
The T/C was 91 % of control.

What about the T/C [8] of the same compound?
Its T/C is 93 % of control.

And the T/C [9]?
Its T/C is 95 % of control.

How did the T/C [2] turn out when `O=C1c2ccccc2C(c2ccccc2)(c2ccccc2)N1c1ccccc1` was run?
Its T/C is 107 % of control.

What about the T/C [4] of the same compound?
The T/C was 104 % of control.

And the T/C [6]?
Its T/C is 107 % of control.

How did the T/C (dose: 0.15 mg/kg/injection, schedule: Q04DX003 (ip), vehicle: Klucel (hydroxypropylcellulose) (HPC)) turn out when `Cc1cccc[n+]1CC(=O)c1ccc(-c2ccc(C(=O)C[n+]3ccccc3C)cc2)cc1` was run?
The T/C was 94 % of control.

And the T/C (dose: 0.3 mg/kg/injection, schedule: Q04DX003 (ip), vehicle: Klucel (hydroxypropylcellulose) (HPC))?
Its T/C is 95 % of control.

What about the T/C (dose: 0.6 mg/kg/injection, schedule: Q04DX003 (ip), vehicle: Klucel (hydroxypropylcellulose) (HPC)) of the same compound?
The T/C was 97 % of control.

How did the T/C [1] turn out when `COC(=O)CCC1CCC(=O)O1` (configuration not stated) was run?
The T/C was 98 % of control.

And the T/C [7]?
Its T/C is 102 % of control.

What about the T/C [3] of the same compound?
Its T/C is 105 % of control.

And the T/C [8]?
Its T/C is 100 % of control.

And the T/C [5]?
Its T/C is 94 % of control.

What about the T/C [9] of the same compound?
Its T/C is 100 % of control.

What does the source list for `O=CN/N=C/c1ccc2c(c1)CCC2`?
T/C [2]: 107 % of control; T/C [4]: 96 % of control; T/C [6]: 96 % of control

How did the T/C (dose: 6.25 mg/kg/injection, schedule: Q01DX005 (ip), vehicle: other) turn out when `Nc1ncnc2c1c1c(SCc3ccc([N+](=O)[O-])cc3)ncnc1n2C1OC(CO)C(O)C1O` (configuration not stated) was run?
The T/C was 104 % of control.

And the T/C (dose: 12.5 mg/kg/injection, schedule: Q01DX005 (ip), vehicle: other)?
Its T/C is 104 % of control.

And the T/C (dose: 25.0 mg/kg/injection, schedule: Q01DX005 (ip), vehicle: other)?
The T/C was 104 % of control.

What about the T/C (dose: 50.0 mg/kg/injection, schedule: Q01DX005 (ip), vehicle: other) of the same compound?
The T/C was 113 % of control.

And the T/C (dose: 100.0 mg/kg/injection, schedule: Q01DX005 (ip), vehicle: other)?
The T/C was 103 % of control.

What about the T/C (dose: 200.0 mg/kg/injection, schedule: Q01DX005 (ip), vehicle: other) of the same compound?
The T/C was 98 % of control.
